According to the supplement of paper PMC10307832:

What was measured:
Test in all cases: relative viability (nuclei count vs DMSO), 5 days (fraction); higher = more cells survive
Bortezomib + Palbociclib = compound: CC(C)C[C@H](NC(=O)[C@H](Cc1ccccc1)NC(=O)c1cnccn1)B(O)O [Bortezomib] + CC(=O)c1c(C)c2cnc(Nc3ccc(N4CCNCC4)cn3)nc2n(C2CCCC2)c1=O [Palbociclib] (partner 0.5 µM)
In short: (§1)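 Medians of duplicate plates are given as relative viability. That measure is the nuclei count in treated wells divided by the count in vehicle wells. Counts were taken on 4× images of lung cancer cell lines in 1536-well plates, 5 days after pin-tool dosing the day after seeding with one drug alone or a fixed anchor-drug dose plus five library-drug doses (not always all listed) in √10 steps.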

Bortezomib + Alpelisib = compound: CC(C)C[C@H](NC(=O)[C@H](Cc1ccccc1)NC(=O)c1cnccn1)B(O)O [Bortezomib] + Cc1nc(NC(=O)N2CCC[C@H]2C(N)=O)sc1-c1ccnc(C(C)(C)C(F)(F)F)c1 [Alpelisib] (partner 2 µM)
In short: as §1

[1] = compound: CC1=CC(=NN1)NC2=CC(=NC(=N2)/C=C/C3=CC=CC=C3)N4CCN(CC4)C + CS(=O)(=O)CCNCc1ccc(-c2ccc3ncnc(Nc4ccc(OCc5cccc(F)c5)c(Cl)c4)c3c2)o1 [Lapatinib] (partner 2 µM)
In short: as §1

Obatoclax + Phenformin = compound: COC1=CC(c2cc3ccccc3[nH]2)=N/C1=C\c1[nH]c(C)cc1C [Obatoclax] + N=C(N)NC(=N)NCCc1ccccc1 [Phenformin] (partner 250 µM)
In short: as §1

Cell Line	relative viability (Bortezomib + Palbociclib; first compound 0.0002 µM)	relative viability (Bortezomib + Palbociclib; first compound 0.000632 µM)	relative viability (Bortezomib + Palbociclib; first compound 0.002 µM)	relative viability (Bortezomib + Palbociclib; first compound 0.006325 µM)	relative viability (Bortezomib + Palbociclib; first compound 0.02 µM)	relative viability (Bortezomib + Alpelisib; first compound 0.0002 µM)	relative viability (Bortezomib + Alpelisib; first compound 0.002 µM)	relative viability (Bortezomib + Alpelisib; first compound 0.006325 µM)	relative viability (Bortezomib + Alpelisib; first compound 0.02 µM)	relative viability ([1]; first compound 0.08 µM)	relative viability ([1]; first compound 0.253 µM)	relative viability ([1]; first compound 0.8 µM)	relative viability ([1]; first compound 2.53 µM)	relative viability ([1]; first compound 8 µM)	relative viability (Obatoclax + Phenformin; first compound 0.01 µM)	relative viability (Obatoclax + Phenformin; first compound 0.03162 µM)	relative viability (Obatoclax + Phenformin; first compound 0.1 µM)	relative viability (Obatoclax + Phenformin; first compound 0.3162 µM)	relative viability (Obatoclax + Phenformin; first compound 1 µM)	relative viability (Bortezomib + Alpelisib; first compound 0.000632 µM)
LC-2-ad	0.534	0.499	0.504	0.278	0.161	0.838	0.898	0.0898	0.0932	0.701	0.928	0.899	0.0949	0.0594	0.637	0.49	0.541	0.585	0.499	–
NCI-H838	0.211	0.23	0.191	0.136	0.103	0.977	1.13	0.475	0.134	1.03	1.28	0.831	0.214	0.091	0.567	0.622	0.362	0.46	0.322	0.983
Calu-6	–	–	–	–	–	0.961	1.04	0.123	0.0909	0.93	0.966	0.793	0.195	0.137	–	–	–	–	–	1.01
SW 900	0.504	0.37	0.203	0.2	0.195	–	–	–	–	–	–	–	–	–	0.556	0.584	0.726	0.493	0.325	–
LCLC-97TM1	0.235	0.183	0.12	0.0721	0.0639	0.245	0.113	0.11	0.114	1.29	1.06	0.922	0.158	0.0857	0.417	0.408	0.458	0.485	0.421	0.242
HCC-15	0.622	0.769	0.689	0.104	0.0904	0.845	0.833	0.307	0.0846	0.867	0.856	0.835	0.319	0.167	0.486	0.432	0.348	0.438	0.327	0.911
CAL-12T	0.561	0.447	0.384	0.182	0.104	1.26	1.11	0.175	0.115	0.654	0.778	0.663	0.324	0.141	0.552	0.612	0.538	0.155	0.102	1.05
NCI-H727	0.751	0.603	0.623	0.684	0.23	0.5	0.494	0.14	0.106	0.744	0.525	0.805	0.494	0.193	0.692	0.499	0.552	0.529	0.517	0.514
ABC-1	0.619	0.709	0.269	0.229	0.328	1	0.372	0.233	0.245	0.957	1.15	1.23	1.13	0.453	0.226	0.215	0.291	0.22	0.297	1.08
